According to US4148786A, “Analgesic polypeptide” (American Home Products Corporation, priority 1978, dated 1979):
Several values for one entry are separate records, joined by “and”; a condition that tells them apart may be missing. Equal entries are not always repeated. Where two headings read alike, the source gives them in different places. Where a SMILES comes first, the peptide text is derived from it. Bridges are numbered along the chain shown (N, C = ends). [ ]: non-standard residue; d: D form.

Columns and labels:
male rats [1] = experiment: rat-tail flick test of D'Amour and Smith; format: in vivo; details: for Positive Responses / Total Possible Responses: all time periods
Experimental: The holders were situated so that a high intensity light beam would shine on the tip of the rats tail. The light beam intensity was adjusted so that normal rats respond by removing their tails from the light stimulus within from 3 to 8 seconds. The average of three time readings for removal of a rats tail from the light beam, taken 20 minutes apart serves as a pre-drug control. The rats were selected for use based upon control readings that agreed within one second. The compounds of this invention were then administered intravenously and the test performed at 15, 30 and 60 minutes to determine the animals reaction time which was compared with the control average and tested for significance. The number of rats showing analgesia at each time period out of the total group for each dose administered is noted as a ratio and the number of positive responses observed is relative to the total number of challenges for each group of rats.

opiate receptor = opiate receptor binding affinity (method of Chang et al.); details: two assays
Experimental: The opiate receptor binding affinity of the compound of Example 2 was determined following the method of Chang et al., Life Sciences, 18, 1473-82(1976).

male rats [2] = experiment: rat-tail flick test of D'Amour and Smith; format: in vivo
[3] = central administration; cited from earlier work
rats [4] = details: peripheral (i.v.); cited from earlier work
rats [5] = details: cited from earlier work; for analgesia: injection in the brain ventricle in rats
mice = details: central administration; cited from earlier work
[6] = administered peripherally; cited from earlier work

Row | Compound | No. Analgesic / Total No. Tested (male rats [1]; 1 mg/kg iv, 15 minutes) | No. Analgesic / Total No. Tested (male rats [1]; 1 mg/kg iv, 30 minutes) | No. Analgesic / Total No. Tested (male rats [1]; 1 mg/kg iv, 60 minutes) | Comments: respiratory depression (male rats [1]; 5 mg/kg iv) | No. Analgesic / Total No. Tested (male rats [1]; 5 mg/kg iv, 15 minutes) | No. Analgesic / Total No. Tested (male rats [1]; 5 mg/kg iv, 60 minutes) | Positive Responses / Total Possible Responses (male rats [1]; 5 mg/kg iv) | Positive Responses / Total Possible Responses (male rats [2]; 1 mg/kg iv, all time periods) | No. Analgesic / Total No. Tested (male rats [2]; 5 mg/kg iv, 30 minutes) | also measured
1 | NC(=O)[C@H]1CSSC[C@@H](NC(=O)[C@@H](N)Cc2ccc(O)cc2)C(=O)NCC(=O)N[C@@H](Cc2ccccc2)C(=O)N1 [Example 2, L-Tyrosyl-D-cysteinyl-glycyl-L-phenylalanyl-D-cysteinyl amide cyclic (2-5) disulfide] | 4/5 and 4/6 | 4/4 and 5/6 | 2/3 and 3/6 | 4/4 Respiration very depressed | 5/5 | 4/4 | 14/14 | 10/12 and 12/18 | 5/5 | No. Analgesic / Total No. Tested (male rats [1]; 0.5 mg/kg iv, 60 minutes): 1/6 and 2/6; displacement potency relative to morphine (opiate receptor): 100 times that of morphine and 109 times that of morphine; No. Analgesic / Total No. Tested (male rats [2]; 0.1 mg/kg iv, 15 minutes): 2/6; No. Analgesic / Total No. Tested (male rats [2]; 0.1 mg/kg iv, 30 minutes): 0/6; No. Analgesic / Total No. Tested (male rats [2]; 0.1 mg/kg iv, 60 minutes): 0/6; Positive Responses / Total Possible Responses (male rats [2]; 0.1 mg/kg iv, all time periods): 2/18; Comments: respiratory depression (male rats [2]; 0.5 mg/kg iv): 1/6 slight respiratory depression; No. Analgesic / Total No. Tested (male rats [2]; 0.5 mg/kg iv, 15 minutes): 3/6 and 4/6; No. Analgesic / Total No. Tested (male rats [2]; 0.5 mg/kg iv, 30 minutes): 2/6 and 3/6; Positive Responses / Total Possible Responses (male rats [2]; 0.5 mg/kg iv, all time periods): 6/10 and 9/18; Comments: dead (male rats [2]; 1 mg/kg iv): 3/6; Comments: respiratory depression (male rats [2]; 1 mg/kg iv): 2/3 severe respiratory depression and Slight depression; Comments: dead (male rats [2]; 5 mg/kg iv): 2/6; Positive Responses / Total Possible Responses (male rats [2]; 5 mg/kg s.c.): 7/24; No. Analgesic / Total No. Tested (male rats [2]; 5 mg/kg s.c., 15 minutes): 4/6
2 | H-Tyr-D-Ala-Gly-Phe-Met-NH2 |  |  |  |  |  |  |  |  |  | analgesia [3]: long lasting analgesic
3 | H-Y[dM]GFP-NH2 |  |  |  |  |  |  |  |  |  | analgesic activity (rats [4]): peripheral (i.v.) analgesic activity
4 | H-Tyr-Gly-Gly-Phe-Met-OH [methionine-enkephalin] |  |  |  |  |  |  |  |  |  | analgesia (rats [5]): induce a profound analgesia
5 | N=C(N)NCCC[C@H](N)C(=O)N[C@@H](Cc1ccc(O)cc1)C(=O)N[C@@H]1CSSC[C@H](C(N)=O)NC(=O)[C@H](Cc2ccccc2)NC(=O)CNC1=O [Example 5, L-Arginyl-L-tyrosyl-D-cysteinyl-glycyl-L-phenylalanyl-D-cysteinylamide cyclic (3-6) disulfide] (H-RY[dC]GF[dC]-NH2; disulfide 3-6) | 4/6 | 3/6 | 2/6 | 3/5 respiratory depression | 6/6 | 5/5 | 16/16 | 9/18 | 5/5 | No. Analgesic / Total No. Tested (male rats [1]; 0.5 mg/kg iv, 60 minutes): 0/6; No. Analgesic / Total No. Tested (male rats [2]; 0.5 mg/kg iv, 15 minutes): 2/6; No. Analgesic / Total No. Tested (male rats [2]; 0.5 mg/kg iv, 30 minutes): 2/6; Positive Responses / Total Possible Responses (male rats [2]; 0.5 mg/kg iv, all time periods): 4/18; Comments: dead (male rats [2]; 5 mg/kg iv): 1
6 | H-Tyr-D-Ala-Gly-Phe-D-Leu-OH |  |  |  |  |  |  |  |  |  | antinociceptive and behavioral effects (rats [5]; central administration, rats): exhibit antinociceptive and behavioral effects; antinociceptive and behavioral effects (mice): exhibit antinociceptive and behavioral effects; analgesic activity on peripheral administration [6]: exhibit peripheral analgesic activity
7 | H-Tyr-Gly-Gly-Phe-Leu-OH [leucine-enkephalin] |  |  |  |  |  |  |  |  |  | analgesia (rats [5]): induce a profound analgesia
8 | H-Tyr-D-Ala-Gly-Phe-D-Met-NH2 |  |  |  |  |  |  |  |  |  | analgesic activity (rats [5]; centrally administered, rats): produced analgesic activity
9 | NC(=O)[C@@H]1CSSC[C@@H](NC(=O)[C@@H](N)Cc2ccc(O)cc2)C(=O)NCC(=O)N[C@@H](Cc2ccccc2)C(=O)N1 [Example 3, L-Tyrosyl-D-Cysteinyl-glycyl-L-phenylalanyl-L-cysteinyl amide cyclic (2-5) disulfide] | 4/6 | 2/6 | 1/6 | 3/6 moderate to severe respiratory | 6/6 | 4/6 | 15/18 | 7/18 | 5/6 | 
10 | CN[C@@H](Cc1ccc(O)cc1)C(=O)N[C@@H]1CSSC[C@H](C(N)=O)NC(=O)[C@H](Cc2ccccc2)NC(=O)CNC1=O [Example 6, N-Methyl-L-tyrosyl-D-cysteinyl-glycyl-L-phenylalanyl-D-cysteinylamide cyclic (2-5) disulfide] | 6/6 | 5/6 | 3/6 | 3/3 respiratory depression | 6/6 | 3/3 | 13/13 | 14/18 | 4/4 | Comments: dead (male rats [2]; 5 mg/kg iv): 3
11 | CN1C(=O)CNC(=O)[C@H](NC(=O)[C@@H](N)Cc2ccc(O)cc2)CSSC[C@H](C(N)=O)NC(=O)[C@@H]1Cc1ccccc1 [Example 4, L-Tyrosyl-D-cysteinyl-glycyl-N-methyl-L-phenylalanyl-D-cysteinylamide cyclic (2-5) disulfide] |  |  |  | 3/6 respiratory depression | 5/6 | 3/6 | 12/18 |  | 4/6 | 
